Data from PMC6749364, “Pharmacokinetics and Tissue Distribution of Alnustone in Rats after Intravenous Administration by Liquid Chromatography-Mass Spectrometry” (Molecules, 2019).

Test: Stability of alnustone in rat plasma and tissue homogenates (QC samples)
Assay type: in vitro ADME, rats
Settings: in % (unit assumed)
Method: The calibration standards were prepared by spiking a certain volume of blank plasma or blank tissue homogenates with appropriate amounts of working solutions to yield a final concentration range from 1 to 2000 ng/mL. The effective concentrations of alnustone were 1, 5, 10, 40, 160, 200, 800, 2000 ng/mL for the plasma samples and tissue homogenates samples (heart, liver, spleen, lung, kidney, brain, stomach, intestine). […]
The stability tests involved the following four conditions. The short-term stability study was examined by analyzing samples at room temperature for 4 h. The long-term stability study was performed by analyzing samples stored at −75 °C for 1 month. For the freeze-thaw stability study, the samples were analyzed after three freeze/thaw cycles (−75 °C to 25 °C). The post-preparative storage stability was assessed by analyzing the samples left in autosampler vials at 4 °C for 24 h. The stability analysis was performed using three aliquots of each QC samples at three different concentrations. The samples were considered stable if the assay values were within the acceptable limits of accuracy (±15% RE) and precision (≤15% RSD).

[1] = Brain homogenate, QC 1600 ng/mL
[2] = Heart homogenate, QC 1600 ng/mL
[3] = Intestine homogenate, QC 1 ng/mL
[4] = Intestine homogenate, QC 5 ng/mL
[5] = Intestine homogenate, QC 100 ng/mL
[6] = Intestine homogenate, QC 1600 ng/mL
[7] = Kidney homogenate, QC 100 ng/mL
[8] = Kidney homogenate, QC 1600 ng/mL
[9] = Liver homogenate, QC 1600 ng/mL
[10] = Spleen homogenate, QC 100 ng/mL
[11] = Spleen homogenate, QC 1600 ng/mL

## O=C(/C=C/C=C/c1ccccc1)CCc1ccccc1 [alnustone, Alnustone]
Brain homogenate, QC 1 ng/mL
  Stability: Autosampler 4 °C for 24 h: 109.2 ± 6.7
  Stability: Short-Term (at Room Temperature for 4 h): 110.6 ± 5.8
  Stability: Storage at −75°C for 30 d: 103.8 ± 4.1
  Stability: Three Freeze-Thraw Cycles: 86.5 ± 6.1
Brain homogenate, QC 5 ng/mL
  Stability: Autosampler 4 °C for 24 h: 104.9 ± 7.0
  Stability: Short-Term (at Room Temperature for 4 h): 109.0± 4.4
  Stability: Storage at −75°C for 30 d: 108.9 ± 3.8
  Stability: Three Freeze-Thraw Cycles: 89.2 ± 4.6
Brain homogenate, QC 100 ng/mL
  Stability: Autosampler 4 °C for 24 h: 95.4 ± 5.7
  Stability: Short-Term (at Room Temperature for 4 h): 99.3 ± 7.5
  Stability: Storage at −75°C for 30 d: 90.2 ± 7.4
  Stability: Three Freeze-Thraw Cycles: 98.0 ± 8.1
[1]
  Stability: Autosampler 4 °C for 24 h: 104.2 ± 4.9
  Stability: Short-Term (at Room Temperature for 4 h): 96.3 ± 7.4
  Stability: Storage at −75°C for 30 d: 112.3 ± 8.9
  Stability: Three Freeze-Thraw Cycles: 110.2 ± 6.8
Heart homogenate, QC 100 ng/mL
  Stability: Autosampler 4 °C for 24 h: 89.0 ± 3.4
  Stability: Storage at −75°C for 30 d: 112.4 ± 4.0
  Stability: Three Freeze-Thraw Cycles: 104.8 ± 6.6
[2]
  Stability: Autosampler 4 °C for 24 h: 90.3 ± 5.2
  Stability: Short-Term (at Room Temperature for 4 h): 91.8 ± 5.8
  Stability: Storage at −75°C for 30 d: 95.6 ± 5.4
  Stability: Three Freeze-Thraw Cycles: 95.3 ± 9.0
[3]
  Stability: Autosampler 4 °C for 24 h: 90.0 ± 5.7
  Stability: Short-Term (at Room Temperature for 4 h): 89.6 ± 8.1
  Stability: Storage at −75°C for 30 d: 96.5 ± 5.7
  Stability: Three Freeze-Thraw Cycles: 113.7 ± 8.7
[4]
  Stability: Autosampler 4 °C for 24 h: 90.9 ± 5.0
  Stability: Short-Term (at Room Temperature for 4 h): 95.8 ± 7.7
  Stability: Storage at −75°C for 30 d: 92.6 ± 3.7
  Stability: Three Freeze-Thraw Cycles: 108.7 ± 9.4
[5]
  Stability: Autosampler 4 °C for 24 h: 98.0 ± 4.9
  Stability: Short-Term (at Room Temperature for 4 h): 95.3 ± 6.7
  Stability: Storage at −75°C for 30 d: 114.4 ± 4.9
  Stability: Three Freeze-Thraw Cycles: 96.9 ± 3.8
[6]
  Stability: Autosampler 4 °C for 24 h: 103.0 ± 8.4
  Stability: Short-Term (at Room Temperature for 4 h): 105.9 ± 7.1
  Stability: Storage at −75°C for 30 d: 107.0 ± 4.3
  Stability: Three Freeze-Thraw Cycles: 113.6 ± 2.8
Kidney homogenate, QC 1 ng/mL
  Stability: Autosampler 4 °C for 24 h: 116.5 ± 8.0
  Stability: Short-Term (at Room Temperature for 4 h): 107.8 ± 7.5
  Stability: Storage at −75°C for 30 d: 89.8 ± 8.1
  Stability: Three Freeze-Thraw Cycles: 93.7 ± 7.0
Kidney homogenate, QC 5 ng/mL
  Stability: Autosampler 4 °C for 24 h: 114.1 ± 7.4
  Stability: Short-Term (at Room Temperature for 4 h): 110.7 ± 6.6
  Stability: Storage at −75°C for 30 d: 88.5 ± 6.4
  Stability: Three Freeze-Thraw Cycles: 95.7 ± 5.7
[7]
  Stability: Autosampler 4 °C for 24 h: 108.0 ± 5.7
  Stability: Short-Term (at Room Temperature for 4 h): 109.7 ± 8.3
  Stability: Storage at −75°C for 30 d: 111.0 ± 7.5
  Stability: Three Freeze-Thraw Cycles: 90.9 ± 7.0
[8]
  Stability: Autosampler 4 °C for 24 h: 95.9 ± 6.0
  Stability: Short-Term (at Room Temperature for 4 h): 100.7 ± 7.0
  Stability: Storage at −75°C for 30 d: 100.5 ± 10.6
  Stability: Three Freeze-Thraw Cycles: 112.5 ± 5.2
Liver homogenate, QC 1 ng/mL
  Stability: Autosampler 4 °C for 24 h: 93.1 ± 5.7
  Stability: Short-Term (at Room Temperature for 4 h): 98.8 ± 6.8
  Stability: Storage at −75°C for 30 d: 111.5 ± 6.9
  Stability: Three Freeze-Thraw Cycles: 101.5 ± 10.1
Liver homogenate, QC 5 ng/mL
  Stability: Autosampler 4 °C for 24 h: 95.3 ± 3.2
  Stability: Short-Term (at Room Temperature for 4 h): 95.4 ± 5.8
  Stability: Storage at −75°C for 30 d: 106.5 ± 10.1
  Stability: Three Freeze-Thraw Cycles: 98.8 ± 9.9
Liver homogenate, QC 100 ng/mL
  Stability: Autosampler 4 °C for 24 h: 101.3 ± 5.6
  Stability: Short-Term (at Room Temperature for 4 h): 111.0 ± 4.9
  Stability: Storage at −75°C for 30 d: 105.4 ± 7.2
  Stability: Three Freeze-Thraw Cycles: 108.4 ± 7.8
[9]
  Stability: Autosampler 4 °C for 24 h: 94.8 ± 7.7
  Stability: Short-Term (at Room Temperature for 4 h): 106.4 ± 6.0
  Stability: Storage at −75°C for 30 d: 97.7 ± 6.8
  Stability: Three Freeze-Thraw Cycles: 98.3 ± 6.3
Lung homogenate, QC 1 ng/mL
  Stability: Autosampler 4 °C for 24 h: 105.8 ± 7.0
  Stability: Short-Term (at Room Temperature for 4 h): 89.5 ± 7.6
  Stability: Storage at −75°C for 30 d: 103.4 ± 8.7
  Stability: Three Freeze-Thraw Cycles: 108.2 ± 9.5
Lung homogenate, QC 5 ng/mL
  Stability: Autosampler 4 °C for 24 h: 103.4 ± 7.1
  Stability: Short-Term (at Room Temperature for 4 h): 92.4 ± 6.4
  Stability: Storage at −75°C for 30 d: 93.0 ± 9.6
  Stability: Three Freeze-Thraw Cycles: 105.8 ± 8.7
Lung homogenate, QC 100 ng/mL
  Stability: Autosampler 4 °C for 24 h: 98.4 ± 5.4
  Stability: Short-Term (at Room Temperature for 4 h): 106.4 ± 8.6
  Stability: Storage at −75°C for 30 d: 101.0 ± 7.5
  Stability: Three Freeze-Thraw Cycles: 94.4 ± 2.6
Lung homogenate, QC 1600 ng/mL
  Stability: Autosampler 4 °C for 24 h: 100.6 ± 9.7
  Stability: Short-Term (at Room Temperature for 4 h): 91.2 ± 6.8
  Stability: Storage at −75°C for 30 d: 92.3 ± 6.3
  Stability: Three Freeze-Thraw Cycles: 93.8 ± 4.6
Spleen homogenate, QC 1 ng/mL
  Stability: Autosampler 4 °C for 24 h: 108.0 ± 6.0
  Stability: Short-Term (at Room Temperature for 4 h): 108.5± 6.4
  Stability: Storage at −75°C for 30 d: 102.3 ± 4.9
  Stability: Three Freeze-Thraw Cycles: 101.2 ± 7.4
Spleen homogenate, QC 5 ng/mL
  Stability: Autosampler 4 °C for 24 h: 101.8 ± 4.3
  Stability: Short-Term (at Room Temperature for 4 h): 114.7 ± 5.8
  Stability: Storage at −75°C for 30 d: 98.1 ± 3.9
  Stability: Three Freeze-Thraw Cycles: 106.2 ± 6.9
[10]
  Stability: Autosampler 4 °C for 24 h: 92.9 ± 6.5
  Stability: Short-Term (at Room Temperature for 4 h): 107.5 ± 8.9
  Stability: Storage at −75°C for 30 d: 114.3 ± 6.6
  Stability: Three Freeze-Thraw Cycles: 105.3 ± 3.1
[11]
  Stability: Autosampler 4 °C for 24 h: 102.1 ± 9.3
  Stability: Short-Term (at Room Temperature for 4 h): 104.4 ± 6.1
  Stability: Storage at −75°C for 30 d: 104.0 ± 3.2
  Stability: Three Freeze-Thraw Cycles: 92.9 ± 7.6
